Measured values as given in publication PMC11249646, “Small-Molecule Disruptors of the Interaction between Calcium- and Integrin-Binding Protein 1 and Integrin αIIbβ3 as Novel Antiplatelet Agents” (ACS Pharmacology & Translational Science, 2024).
Where two headings read alike, the source gives them in different places.

Columns and labels:
[1] = biological target: T1, CIB1 and αIIb interaction (CIB1-GST : F-αIIb peptide) (Homo sapiens, UniProt Q99828); test: FP assay, 1536-well qHTS format (primary and confirmatory screen); assay type: binding; details: for Curve Class (confirmatory screen) / CONFIRMATORY SCREEN Curve Class: qHTS curve class
T1 construct: made in house; host or cells: BL-21 plus RIL cells (E. coli)
T1 sequence (Q99828 1-191): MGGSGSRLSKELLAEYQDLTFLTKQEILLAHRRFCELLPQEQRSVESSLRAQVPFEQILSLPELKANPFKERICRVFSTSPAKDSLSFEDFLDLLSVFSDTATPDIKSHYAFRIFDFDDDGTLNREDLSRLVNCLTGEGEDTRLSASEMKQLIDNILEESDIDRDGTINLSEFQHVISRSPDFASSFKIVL

[2] = biological target: T2, GST-CIB1 : F-scrambled peptide (Homo sapiens, UniProt Q99828); test: FP scrambled-peptide counter screen, 1536-well format; assay type: binding; details: for Confirm? (counterscreen): YES/NO; for Curve Class (counterscreen) / COUNTERSCREEN Curve Class: qHTS curve class; for IC50: read-out: IC50 [μM] (counterscreen)
T2 construct: made in house; host or cells: BL-21 plus RIL cells (E. coli)
T2 sequence (Q99828 1-191): T1 sequence (Q99828 1-191)

[3] = confirmatory screen, negative sign = inhibitory curve
[4] = qHTS FP screen hits, Table S2, negative = inhibition
[5] = qHTS FP screen hits, Table S2, one class per curve where COUNT > 1, negative sign = inhibitory curve
[6] = qHTS FP screen hits, Table S2, read-out: IC50
[7] = counterscreen, negative sign = inhibitory curve
[8] = confirmatory screen, read-out: IC50 [μM] (confirmatory screen)
[9] = qHTS primary screen hits, Table S2, negative = inhibition
[10] = qHTS primary screen hits, Table S2, read-out: IC50
[11] = qHTS primary screen hits, Table S2, negative sign = inhibitory curve, several classes where COUNT > 1
[12] = qHTS primary screen hits, Table S2, negative sign = inhibitory curve
[13] = Table S3, confirmatory screen, YES/NO call
[14] = Table S3, confirmatory screen, a negative sign marks inhibitory curves
[15] = Table S3, confirmatory screen, negative = inhibition
[16] = Table S3, counterscreen, a negative sign marks inhibitory curves
[17] = Table S3, counterscreen, negative = inhibition
[18] = Table S3, confirmatory screen, read-out: IC50 [μM] (confirmatory screen)

Structure (SMILES) | Efficacy (%) (confirmatory screen) ([1]; confirmatory screen) | Confirm? (confirmatory screen) ([1]; confirmatory screen, YES/NO) | Curve Class (confirmatory screen) [1, 3] | Efficacy (%) [1, 4] | IC50 [1, 6] | Efficacy (%) (counterscreen) ([2]; counterscreen) | Curve Class (counterscreen) [2, 7] | IC50 [1, 8] | Efficacy (%) [1, 9] | IC50 [1, 10] | IC50 ([2]; counterscreen) | Curve Class [1, 11] | Curve Class (confirmatory screen) [1, 14] | Efficacy (%) (confirmatory screen) [1, 15] | Curve Class (counterscreen) [2, 16] | Efficacy (%) (counterscreen) [2, 17] | also measured
O=C(O)C(F)(F)F.O=S(=O)(Nc1nc2ccccc2s1)c1ccc(NCc2ccc(Br)cc2O)cc1 [NCGC00319026-01] | -45% | YES | -2.4 | -50% | 39.8 µM | -15% | 4 |  |  |  |  |  |  |  |  |  | Curve Class [1, 5]: -2.2; Confirm? (counterscreen) ([2]; counterscreen): YES
Cc1cc(SCc2sc(-c3ccc(Cl)c(Cl)c3)nc2C)ccc1OCC(=O)O.O=C(O)C(F)(F)F [NCGC00319075-01] | -74% | YES | -3 |  |  | 78% |  | 35.5 µM | -41% | 34 µM | 79.4 µM |  |  |  |  |  | Confirm? (counterscreen) ([2]; counterscreen): YES
COc1cc(C=C2C(=O)Nc3ccccc32)cc(OC)c1O [NCGC00343740-01] | -81% | YES | -2.2 |  |  | -44% | -2.4 |  | -53% | 44.7 µM | 44.7 µM | -2.2 |  |  |  |  | 
Cc1ccc(S(=O)(=O)Nc2cnccc2C(=O)Nc2ccc(-c3nnn[nH]3)cc2)cc1.O=C(O)C(F)(F)F [NCGC00343837-01] | -63% | YES | -2.4 |  |  | -40% | 4 | 35.5 µM | -24% | 31.6 µM |  |  |  |  |  |  | Curve Class [1, 12]: -2.4; Confirm? (counterscreen) ([2]; counterscreen): YES
O=C(O)C(F)(F)F.O=S(=O)(Nc1ccc(N2CCNCC2)cc1)c1ccc(NCc2ccc(Br)cc2O)cc1 [NCGC00343874-01] |  |  |  |  |  |  |  |  | -76% | 79.4 µM |  | -2.2 | -2.4 | -41% | -2.2 | -58% | Confirm? (confirmatory screen) [1, 13]: YES; IC50 ([2]; Table S3, counterscreen): 44.7 µM
N#Cc1ccc(NS(=O)(=O)c2ccc(NC(=O)Cc3ccc(F)c(Cl)c3)cc2)cc1.O=C(O)C(F)(F)F [NCGC00343891-01] |  |  |  |  |  |  |  |  | -15% | 4 µM |  | -1.4 | 3 | 72% | 3 | 154% | IC50 ([2]; Table S3, counterscreen): 89.1 µM
C[C@@H](NCc1cc2ccccc2[nH]1)c1cccc2ccccc12.Cl [NCGC00344505-01] |  |  |  |  |  |  |  |  | -31% | 21.5 µM |  | -2.4 | 4 | -25% | 4 | -21% | 
COc1ccc(S(=O)(=O)Nc2cnccc2C(=O)Nc2nc(-c3ccccc3)cs2)cc1.O=C(O)C(F)(F)F [NCGC00344944-01] | -81% | YES | -2.2 | -52% | 39.8 µM | -81% | -2.2 |  |  |  | 44.7 µM |  |  |  |  |  | Curve Class [1, 5]: -2.2
O=C(Nc1nc(-c2ccccc2)cs1)c1ccncc1NS(=O)(=O)c1cccs1.O=C(O)C(F)(F)F [NCGC00345032-01] | -85% | YES | -1.2 |  |  | -52% | -2.2 | 25.1 µM | -59% |  | 79.4 µM | -2.2 |  |  |  |  | Confirm? (counterscreen) ([2]; counterscreen): YES
CO[C@@H]1C(N(C)C(=O)c2ccccc2)C[C@H]2O[C@]1(C)n1c3ccccc3c3c4c(c5c6ccccc6n2c5c31)C(=O)NC4=O (stereo partly drawn) [NCGC00345083-01] |  |  |  |  |  |  |  |  | -67% | 19.2 µM |  | -2.2 | -1.2 | -78% | -1.1 | -150% | Confirm? (confirmatory screen) [1, 13]: YES; IC50 [1, 18]: 14.1 µM; IC50 ([2]; Table S3, counterscreen): 22.4 µM
CN(C)CCN1C(=O)c2cccc3cc(N)cc(c23)C1=O [NCGC00346513-01] |  |  |  |  |  |  |  |  | -32% | 1.1 µM |  | -1.2 |  |  |  |  | CONFIRMATORY SCREEN Efficacy (%) ([1]; confirmatory screen): -50%; CONFIRMATORY SCREEN Curve Class ([1]; confirmatory screen): 4; COUNTERSCREEN Efficacy (%) ([2]; counterscreen): -24%; COUNTERSCREEN Curve Class ([2]; counterscreen): 4
Cc1nc(C(=O)NCC(=O)O)c(O)c2ccc(Oc3ccccc3)cc12 [NCGC00346527-01] |  |  |  |  |  |  |  |  | -24% | 38.5 µM |  |  |  |  |  |  | CONFIRMATORY SCREEN Efficacy (%) ([1]; confirmatory screen): -26%; CONFIRMATORY SCREEN Curve Class ([1]; confirmatory screen): 4; Curve Class [1, 12]: -2.4; COUNTERSCREEN Efficacy (%) ([2]; counterscreen): 0%; COUNTERSCREEN Curve Class ([2]; counterscreen): 4
Nc1cccc2c1C(=O)N(C1CCC(=O)NC1=O)C2=O (stereo not drawn) [NCGC00346551-01] |  |  |  |  |  |  |  |  | -43% | 21.5 µM |  | -2.2 | -2.2 | -78% | -2.1 | -91% | Confirm? (confirmatory screen) [1, 13]: YES; IC50 [1, 18]: 50.1 µM; IC50 ([2]; Table S3, counterscreen): 44.7 µM
C=C1C(=O)[C@@]23C(CC[C@@H]1[C@H]2O)[C@@]12CO[C@]3(O)[C@@H](O)[C@@H]1C(C)(C)CC[C@@H]2O (stereo partly drawn) [NCGC00346595-02] | -89% | YES | -1.1 |  |  | -60% | -1.2 | 25.1 µM |  |  | 15.8 µM |  |  |  |  |  | 
CN1CCCN(C(=O)c2cccc(-c3ccc(/C=C4/C(=O)Nc5ccc(Cl)cc54)o3)c2)CC1 [NCGC00346935-01] |  |  |  | -37% | 15.2 µM |  |  |  |  |  |  |  | -1.3 | -102% | -1.1 | -108% | Confirm? (confirmatory screen) [1, 13]: YES; IC50 [1, 18]: 35.5 µM; Curve Class [1, 5]: -2.2; IC50 ([2]; Table S3, counterscreen): 35.5 µM
O=C(O)CCNc1cc(N2CCc3ccccc3CC2)nc(-c2ccccn2)n1 [NCGC00347943-01] |  |  |  |  |  |  |  |  |  |  |  |  |  |  |  |  | CONFIRMATORY SCREEN Efficacy (%) ([1]; confirmatory screen): -28%; CONFIRMATORY SCREEN Curve Class ([1]; confirmatory screen): 4; COUNTERSCREEN Efficacy (%) ([2]; counterscreen): -35%; COUNTERSCREEN Curve Class ([2]; counterscreen): 4
COc1ccc(NC(=O)c2[nH]c(C)c(C(C)=O)c2C)cc1S(=O)(=O)Nc1ccccc1C#N [NCGC00348145-01] | -41% | YES | -2.2 | -21% | 31.6 µM | 157% | 3 | 35.5 µM |  |  | 39.8 µM |  |  |  |  |  | Confirm? (counterscreen) ([2]; counterscreen): YES
CCCCCCCCn1cc(CC(N)=O)c2cc(-c3cccc(C)c3)ccc21.O=C(O)C(F)(F)F [NCGC00348156-02] |  |  |  | -74% | 50.1 µM |  |  |  |  |  |  |  | -2.4 | -95% | -2.1 | -121% | Confirm? (confirmatory screen) [1, 13]: YES; IC50 [1, 18]: 44.7 µM; IC50 ([2]; Table S3, counterscreen): 39.8 µM
COc1nc2ccc(Br)cc2cc1[C@@H](c1ccccc1)[C@@](O)(CCN(C)C)c1cccc2ccccc12 [NCGC00348215-04] | -94% | YES | -2.2 | -64% | 50.1 µM | -83% | -2.2 | 89.1 µM |  |  | 89.1 µM |  |  |  |  |  | Curve Class [1, 5]: -2.2
CC1=C(C(=O)Nc2cccc(C(=O)O)c2)C(c2ccccc2Cl)N=C(Nc2nc3ccccc3o2)N1.O=C(O)C(F)(F)F (stereo not drawn) [NCGC00351024-01] | -26% | YES | -2.4 | -37% | 39.8 µM | 141% |  |  |  |  | 79.4 µM |  |  |  |  |  | Curve Class [1, 5]: -2.2; Confirm? (counterscreen) ([2]; counterscreen): YES
Cc1cccc(C(=O)c2no[n+]([O-])c2C(=O)c2cccc(C)c2)c1.O=C(O)C(F)(F)F [NCGC00351156-01] | -73% | YES | -2.2 |  |  | -65% | -1.2 | 31.6 µM | -52% | 7.9 µM | 10 µM | -1.2 |  |  |  |  | 
